Assay results taken from paper PMC9820303, “^αN-Acetyl β-Endorphin Is an Endogenous Ligand of σ1Rs That Regulates Mu-Opioid Receptor Signaling by Exchanging G Proteins for σ2Rs in σ1R Oligomers” (International Journal of Molecular Sciences, 2022).

Biological target: T1, σ1R-NR1 C1 (Mus musculus, UniProt O55242)
T1 construct: The coding region of the full-length murine σ1R (AF004927); GST (N, cleaved yes); made in house; host or cells: E. coli BL21 (KRX)
Assay: In vitro σ1R-NR1 C1 association of recombinant proteins (Western blot)
Type: biochemical, murine
Conditions: increasing concentrations; 30 min RT; vs control without ligand
Protocol: Figure 7 Effect of β-End 1–31, ^αN-acetyl β-End 1–31 and their N-terminal derivatives on σ1R-σ2R, σ1R-NR1 C1 and σ1R-BiP associations. Amino acid sequence of β-End 1–31 showing derivatives 1–26 and 1–27. (A) HaloLink-attached σ2Rs were incubated for 30 min at RT in the presence of σ1Rs (100 nM) in 300 μL of 50 mM Tris-HCl (pH 7.4), 0.2% CHAPS, and 2.5 mM CaCl2. After removing the unbound σ1R proteins, the effects of increasing the peptide concentrations on σ1R-σ2R associations were studied. At the end of the incubation, protein complexes bound to HaloLink-σ2R were obtained by centrifugation, washed three times, solubilized in 2× Laemmli buffer containing β-mercaptoethanol, resolved by SDS-PAGE, and analyzed by Western blotting (for more details, see Section 4). This protocol was also used to assess the effect of ligands on (B) σ1R-NR1 C1 and (C) σ1R-BiP associations. Data were compared to that of the control, which was obtained in the absence of ligands. (A–C) Data are the mean ± SD, n = 3. (D) The β-End 1–31 structural models were predicted by Novafold (DNASTAR Lasergene protein v.17, Inc., Madison, WI, USA). Ribbon model: The 3D structure, charge distribution and hydrophobicity map of β-End 1–31 are shown. Positive charges are shown in red and negative charges in blue. Polar surfaces are shown in yellow, and nonpolar surfaces are shown in orange. Linear model: the opioid (1–5) and flexible region (8–11) sequences are shown in green and orange, respectively, and the amphiphilic helix (15–25) is shown in pink.
The recombinant σ1R (100 nM) was incubated either with Haloprotein (negative control) or together with the immobilized σ2R, NR1 C0-C1-C2 or BiP proteins in 300 µL of a buffer containing 50 mM Tris-HCl (pH 7.4) and 0.2% CHAPS in the presence of 2.5 mM CaCl2 for 30 min at RT. After removal of the unbound σ1R, the agarose-attached complexes were incubated for 30 min with rotation at RT in the presence of increasing concentrations of the ligands in a final reaction volume of 300 µL [50 mM Tris-HCl (pH 7.4), 2.5 mM CaCl2 and 0.2% CHAPS]. Ligands were usually dissolved in aqueous solutions; however, when an organic solvent such as DMSO was required to incorporate, e.g., pregnenolone sulfate, the solvent remained below 1% in the assay buffer. Agarose pellets containing the bound proteins were obtained by centrifugation, washed and resuspended thrice in the presence of 2.5 mM CaCl2, solubilized in 2× Laemmli buffer plus β-mercaptoethanol, and analyzed by Western blotting.
Because all the assays were performed with recombinant proteins, the immune signals provided a single band of the expected size, which was used for the subsequent densitometry analysis. Accordingly, no other regions of the blots provided information and were routinely excluded from the analysis.
Figure S8. Effect of the physiological and nonphysiological sequences of β-End 1-31 and classical σ1R ligands on BiP-σ1R, σ2R-σ1R and NR1 C1-σ1R associations . […]
D) Agarose-NR1 C1 loaded with […]
σ1Rs were incubated in the absence (control) and with nonphysiological derivatives of β-End 1-31. A-D) The σ1Rs that remained attached to the agarose complexes were evaluated by Western blotting. The […]
(1 picture or pasted object on this page, not shown here)
Figure S9. Effect of σ1R agonist/antagonist ligands on σ1R-NR1 C1 associations. Θ-Agarose-NR1 C1 was loaded with recombinant σ1Rs. After unbound σ1R proteins were removed, the complexes were incubated with (A) 1 nM β-End 1-31, (B) αN-acetyl β-End 1-31, (C-D) β-End 28-31 in the absence (black columns) and presence of (A) 10 nM or (B-D) increasing concentrations of competing σ1R ligands as indicated. The σ1Rs that remained attached to the Θ-σ2Rs were evaluated by Western blotting. The […]
Prog is progesterone; PregSulfate is pregnenolone sulfate; Nac is […]

T1 sequence (O55242 whole entry): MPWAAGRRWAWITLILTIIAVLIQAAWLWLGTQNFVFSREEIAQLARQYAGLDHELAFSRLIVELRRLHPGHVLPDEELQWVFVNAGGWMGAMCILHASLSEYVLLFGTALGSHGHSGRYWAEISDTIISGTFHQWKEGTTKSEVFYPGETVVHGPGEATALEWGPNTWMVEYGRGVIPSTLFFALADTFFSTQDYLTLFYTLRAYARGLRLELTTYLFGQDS

Row | Compound | effect on σ1R-NR1 C1 association
1 | Br.Br.CN(C)CCN(C)CCc1ccc(Cl)c(Cl)c1 [BD1047, N′-[2-(3,4-dichlorophenyl)ethyl]-N,N,N′-trimethylethane-1,2-diamine;dihydrobromide, reference compound] | did the opposite
2 | COC(=O)[C@]1(c2ccc(C)cc2)C[C@@H]1CN1CCC(O)(c2ccccc2)CC1 [PPCC, (1R,2S/1S,2R)-2-[4-hydroxy-4-phenylpiperidin-1-yl)methyl]-1-(4-methylphenyl) cyclopropanecarboxylate, reference compound] | increased σ1R-NR1 C1 complexes
3 | Cl.O=C(OCCN1CCOCC1)C1(c2ccccc2)CCCCC1 [PRE084, 2-(4-morpholinethyl)-1-phenylcyclohexanecarboxylate hydrochloride, reference compound] | increased σ1R-NR1 C1 complexes
4 | Cc1cc(OCCN2CCOCC2)nn1-c1ccc2ccccc2c1 [S1RA] | did the opposite
5 | KKGE [β-End 28–31, C-terminal tetrapeptide of β-End 1–31] | reduced σ1R-NR1 C1 interactions
6 | YKKGE [β-End 27–31, C-terminal pentapeptide of β-End 1–31] | increased σ1R-NR1 C1
7 | ^αN-acetyl β-End 1–31: β-End 1–31 acetylated at N terminal Y1, α position | separated σ1Rs from NR1 C1 subunits at pM concentrations
8 | β-End 1–26: β-End 1–31 derivative without 5 C-terminal residues (YGGFMTSEKSQTPLVTLFKNAIIKNA; Beta-endorphin; UniProt P01189 237-262, looked up, fragment) | promoted σ1R-NR1 C1 associations at pM concentrations
9 | β-End 1–27: β-End 1–31 derivative without 4 C-terminal residues (YGGFMTSEKSQTPLVTLFKNAIIKNAY; Beta-endorphin; UniProt P01189 237-263, looked up, fragment) | weak or no effects
10 | β-End 6–31: β-End 1–31 lacking the N-terminal met-enkephalin 1–5 sequence (TSEKSQTPLVTLFKNAIIKNAYKKGE; Beta-endorphin; UniProt P01189 242-267, looked up, fragment) | began to separate the complex
11 | β-End 22–31: nonphysiological C-terminal sequence of β-End 1–31 (IIKNAYKKGE; Beta-endorphin; UniProt P01189 258-267, looked up, fragment) | persisted
